Assay results reported in the supplement of paper PMC6045584.
± gives the standard deviation of the averaged measurements.

How the values were obtained:
AZD4547 = compound: COc1cc(CCc2cc(NC(=O)c3ccc(N4CC(C)NC(C)C4)cc3)n[nH]2)cc(OC)c1 [AZD4547]; test: surviving fraction relative to DMSO-only wells; higher = less growth inhibition; details: exposure time: 5 days
Summary of the method: (§1)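 Viability was scored with CellTiter-Glo luminescence and normalised to the median of DMSO-only wells as surviving fraction. Beforehand, log-phase tumour cell lines were seeded at 250–500 cells per well in 384-well plates, allowed 24 hours, and exposed continuously for five days to inhibitors at 0.5, 1, 5, 10, 50, 100, 500 and 1000 nM. Only lines whose three screens gave replicate Pearson r >0.7 and median Z' >0.3 were kept.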

MK2206 = compound: NC1(c2ccc(-c3nc4ccn5c(=O)[nH]nc5c4cc3-c3ccccc3)cc2)CCC1 [MK2206]; test: as above; details: exposure time: 5 days
Summary of the method: as §1

Test System	surviving fraction (AZD4547; 0.5 nM)	surviving fraction (AZD4547; 1 nM)	surviving fraction (AZD4547; 5 nM)	surviving fraction (AZD4547; 10 nM)	surviving fraction (AZD4547; 50 nM)	surviving fraction (AZD4547; 100 nM)	surviving fraction (AZD4547; 500 nM)	surviving fraction (AZD4547; 1000 nM)	surviving fraction (MK2206; 0.5 nM)	surviving fraction (MK2206; 1 nM)	surviving fraction (MK2206; 5 nM)	surviving fraction (MK2206; 10 nM)	surviving fraction (MK2206; 50 nM)	surviving fraction (MK2206; 100 nM)	surviving fraction (MK2206; 500 nM)	surviving fraction (MK2206; 1000 nM)
SG27 HEADNECK	0.937 ± 0.05	0.959 ± 0.078	0.864 ± 0.027	0.82 ± 0.024	0.68 ± 0.069	0.791 ± 0.032	0.849 ± 0.027	0.943 ± 0.098	1.15 ± 0.065	1.17 ± 0.066	1.07 ± 0.056	1.05 ± 0.089	0.843 ± 0.18	0.949 ± 0.12	0.948 ± 0.043	0.932 ± 0.042
SG28 HEADNECK	0.977 ± 0.13	1.14 ± 0.023	1.07 ± 0.093	0.982 ± 0.026	0.959 ± 0.048	1.04 ± 0.087	1.01 ± 0.077	0.706 ± 0.057	1 ± 0.1	1.16 ± 0.013	1.02 ± 0.14	1.05 ± 0.12	0.864 ± 0.061	0.852 ± 0.1	0.634 ± 0.0078	0.719 ± 0.059
SG31 HEADNECK	1.21 ± 0.24	0.886 ± 0.12	0.994 ± 0.15	1.01 ± 0.17	0.836 ± 0.07	0.856 ± 0.12	0.883 ± 0.049	0.958 ± 0.051	1.24 ± 0.29	0.996 ± 0.022	1.1 ± 0.28	1.19 ± 0.2	0.945 ± 0.16	0.916 ± 0.2	0.901 ± 0.13	0.88 ± 0.12
SG32 HEADNECK	0.915 ± 0.25	1 ± 0.15	0.925 ± 0.2	0.938 ± 0.083	1.04 ± 0.031	0.946 ± 0.032	0.968 ± 0.3	0.659 ± 0.056	1.04 ± 0.053	0.975 ± 0.3	1.08 ± 0.24	1.17 ± 0.19	1.51 ± 0.17	1.08 ± 0.13	0.964 ± 0.073	0.83 ± 0.1
SG43 HEADNECK	1.02 ± 0.37	0.896 ± 0.17	0.714 ± 0.13	0.8 ± 0.13	0.759 ± 0.099	0.696 ± 0.14	0.94 ± 0.11	0.731 ± 0.074	1.19 ± 0.62	0.92 ± 0.097	0.894 ± 0.2	0.741 ± 0.14	0.653 ± 0.19	0.505 ± 0.073	0.465 ± 0.17	0.317 ± 0.089
SIHA CERVIX	1.06 ± 0.037	1.08 ± 0.05	1.11 ± 0.066	0.985 ± 0.025	0.839 ± 0.079	0.895 ± 0.054	0.786 ± 0.06	0.785 ± 0.052	0.989 ± 0.041	1 ± 0.043	1.02 ± 0.092	1.04 ± 0.062	0.8803 ± 0.0068	0.876 ± 0.031	0.731 ± 0.013	0.719 ± 0.021
SJSA1 BONE	1.01 ± 0.028	1.08 ± 0.08	1.08 ± 0.076	1.09 ± 0.046	1.14 ± 0.036	1.06 ± 0.05	1.01 ± 0.041	0.975 ± 0.075	0.752 ± 0.027	0.825 ± 0.033	0.907 ± 0.028	0.804 ± 0.032	1.66 ± 0.096	1.7 ± 0.048	1.66 ± 0.13	1.71 ± 0.15
SKBR3 BREAST	1.07 ± 0.14	1.2 ± 0.05	1.04 ± 0.079	1.09 ± 0.13	1.15 ± 0.13	1.26 ± 0.13	1.16 ± 0.18	1.11 ± 0.13	0.983 ± 0.076	1.01 ± 0.16	0.942 ± 0.085	0.911 ± 0.032	0.724 ± 0.067	0.581 ± 0.028	0.368 ± 0.02	0.337 ± 0.015
SNU475 LIVER	0.956 ± 0.021	1.02 ± 0.059	0.95 ± 0.024	0.972 ± 0.056	0.925 ± 0.047	0.948 ± 0.019	0.939 ± 0.053	0.894 ± 0.012	0.973 ± 0.037	1.04 ± 0.053	1.01 ± 0.027	0.983 ± 0.043	0.9 ± 0.024	0.891 ± 0.018	0.767 ± 0.03	0.653 ± 0.1
SUM44 BREAST	0.9847 ± 0.0095	1.02 ± 0.029	0.985 ± 0.042	1.08 ± 0.064	1.11 ± 0.019	1.06 ± 0.011	1.09 ± 0.066	1.07 ± 0.05	1.09 ± 0.17	1.19 ± 0.28	1.14 ± 0.24	1.22 ± 0.31	0.993 ± 0.051	1.13 ± 0.21	1.02 ± 0.18	1.09 ± 0.34
SUM149 BREAST	0.989 ± 0.054	1.05 ± 0.11	1.08 ± 0.017	1 ± 0.034	1.04 ± 0.072	0.989 ± 0.05	1.02 ± 0.073	0.916 ± 0.047	1.04 ± 0.049	1.05 ± 0.038	1.02 ± 0.058	0.997 ± 0.098	0.937 ± 0.036	0.953 ± 0.029	0.932 ± 0.082	0.872 ± 0.055
SUM149.B1*.S BREAST	1.05 ± 0.013	1.083 ± 0.01	1.09 ± 0.04	1.09 ± 0.035	1.05 ± 0.083	1.07 ± 0.018	1.07 ± 0.054	1.07 ± 0.077	1.08 ± 0.057	1.14 ± 0.093	1.12 ± 0.034	1.09 ± 0.076	1.05 ± 0.058	1.07 ± 0.045	0.998 ± 0.056	1.06 ± 0.036
SUM159 BREAST	1.16 ± 0.24	1.19 ± 0.22	1.15 ± 0.2	1.2 ± 0.23	1.15 ± 0.2	1.14 ± 0.2	1.22 ± 0.27	1.1 ± 0.15	1.08 ± 0.04	1.093 ± 0.0081	1.07 ± 0.024	1.11 ± 0.03	1.06 ± 0.015	1.08 ± 0.02	1.09 ± 0.029	1.08 ± 0.018
SYO1 SYNOVIAL	0.897 ± 0.051	0.942 ± 0.022	0.744 ± 0.037	0.737 ± 0.021	0.664 ± 0.012	0.686 ± 0.02	0.637 ± 0.041	0.556 ± 0.046	0.95 ± 0.012	0.975 ± 0.05	0.953 ± 0.022	1 ± 0.028	0.905 ± 0.032	0.885 ± 0.066	0.748 ± 0.051	0.702 ± 0.036
T47D BREAST	1.02 ± 0.044	1.05 ± 0.013	1.06 ± 0.043	1.04 ± 0.034	1.09 ± 0.018	1.12 ± 0.025	1.18 ± 0.03	1.2 ± 0.073	1.04 ± 0.03	1.06 ± 0.064	1 ± 0.036	0.945 ± 0.027	0.755 ± 0.032	0.654 ± 0.042	0.482 ± 0.021	0.449 ± 0.027
U2OS BONE	0.992 ± 0.042	1.024 ± 0.0069	0.95 ± 0.015	0.901 ± 0.024	0.777 ± 0.013	0.759 ± 0.029	0.711 ± 0.012	0.648 ± 0.0075	0.992 ± 0.017	1.03 ± 0.051	1.03 ± 0.027	1.05 ± 0.026	0.991 ± 0.015	0.941 ± 0.035	0.815 ± 0.0053	0.731 ± 0.055
VCAP PROSTATE	0.966 ± 0.078	0.976 ± 0.043	1.1 ± 0.12	0.989 ± 0.12	0.948 ± 0.07	1.07 ± 0.07	0.795 ± 0.048	0.705 ± 0.065	0.898 ± 0.12	0.848 ± 0.073	0.928 ± 0.069	0.936 ± 0.054	0.834 ± 0.13	0.754 ± 0.093	0.507 ± 0.066	0.362 ± 0.017
VP229 BREAST	1.32 ± 0.12	1.38 ± 0.049	1.42 ± 0.099	1.38 ± 0.065	1.25 ± 0.1	1.42 ± 0.092	1.4 ± 0.25	1.32 ± 0.033	1.1 ± 0.13	1.19 ± 0.16	1.19 ± 0.14	1.18 ± 0.15	1.07 ± 0.14	0.909 ± 0.18	0.713 ± 0.055	0.658 ± 0.12
YAMATO SYNOVIAL	1.19 ± 0.024	1.22 ± 0.074	1.25 ± 0.038	1.22 ± 0.046	1.16 ± 0.064	1.08 ± 0.045	0.911 ± 0.05	0.816 ± 0.048	1.13 ± 0.13	1.12 ± 0.023	1.16 ± 0.1	1.08 ± 0.063	0.84 ± 0.022	0.708 ± 0.036	0.521 ± 0.01	0.482 ± 0.027
ZR751 BREAST	0.902 ± 0.092	0.949 ± 0.095	0.838 ± 0.076	0.887 ± 0.041	0.837 ± 0.15	1.01 ± 0.029	1.05 ± 0.093	0.971 ± 0.059	0.962 ± 0.026	1.04 ± 0.088	0.678 ± 0.065	0.734 ± 0.064	0.407 ± 0.024	0.424 ± 0.027	0.308 ± 0.029	0.317 ± 0.029
